Marks after values point to notes of the source that are not given here. Primed or numbered codes have the meaning given here. Ends that are not written are not given here. * marks the point of attachment. GW4064″ = FXR ligand, CC(C)c1onc(-c2c(Cl)cccc2Cl)c1COc1ccc(/C=C/c2cccc(C(=O)*)c2)c(Cl)c1; RARβ/γ ligand = not defined here; Decanoyl = CCCCCCCCCC(=O)*; bexarotene″ = RXR ligand; GW4064(3) = FXR ligand; GW7647 = PPARα ligand

Common to all, as to format: cell-based
In one experiment the test system is HFF-1 cell line. Description: Collagen stimulating activity (COL1A1 ELISA of supernatants). To be noted: peptide 2 uM, 72 hour, supernatant anti-COL1A1 ELISA. How it is done:
Immodulin peptides have potential untility in the field of cosmetics. HFF-1 cell line from American Type Culture Collection (ATCC) was grown in DMEM Medium containing 10% fetal bovine serum and penicillin-streptomycin at 37° C. in a humidified, 5% CO2 incubator. 2,000 cells/well were plated in a 96-well plate and incubated overnight. 10 ul/well of peptides (2 uM final concentration) were added in quadruplicate wells. After 72 hour incubation with the compound, supernatants were collected and immunoreactivity was measured by ELISA using monoclonal anti-COL1A1 antibody (Abcam, Cambridge, MA). * p<0.05, ** p<0.01 vs no peptide.

In another experiment the test system is A375. Kind of experiment: Cancer cell viability (CellTiterGlo), A375. Particulars: RXR modulators each at 0.5 uM with peptide imm3A1 0.66 uM, 72 hour; untreated=100. How it is done: (§1) A375, A549 and HuT78 cancer cell lines was obtained from American Type Culture Collection (ATCC). They were grown in a T-75 flask in DMEM (or IMDM, for HuT78) medium containing 10% fetal bovine serum and penicillin-streptomycin at 37° C. in a humidified, 5% CO2 incubator. Cells (100 µl, 2,000 cells/well; 5,000 cells/well for HuT78) were plated in a 96-well plate and incubated overnight at 37° C. in a humidified, 5% CO2 incubator. Next day, 10 ul/well of compounds were added (quadruplicate wells). After 72 hour incubation with the compound, cell viability was measured in a luminometer by addition of 100 µL/well CellTiterGlo reagent (Promega Inc, Madison, WI) and reading chemiluminescence after 10 mins, as recommended by the manufacturer. Peptide imm3A1 ([…]-[…]) was added at 0.66 uM and RXR modulators, each at 0.5 uM. The results of this experiment are shown below, expressed as percent survival of cells (untreated=100).

Another experiment has as its system A549. Kind of experiment: Cancer cell viability (CellTiterGlo), A549. To be noted: RXR modulators each at 0.5 uM with peptide imm3A1 0.66 uM, 72 hour; untreated=100. The procedure: as §1
The next experiment concerns HuT78. Kind of experiment: Cancer cell viability (CellTiterGlo), HuT78. Particulars: RXR modulators each at 0.5 uM with peptide imm3A1 0.66 uM, 72 hour; untreated=100. How it is done: as §1
A further experiment relates to C2C12 myoblast cell line. Kind of experiment: C2C12 myoblast differentiation assay (creatine kinase). More on the design: CK (units/mg): unit not given here. Particulars: for CK (units/mg): peptide(s) 0.66 uM, no free added ligand, 96 h, relative to imm3SVD (=100). How it is done: C2C12 myoblast cell line (ATCC, Manassas, VA) was cultured in DMEM medium supplemented with 10% FBS and 1% penicillin/streptomycin. For differentiation, cells were cultured in the same medium, except that 10% FBS was replaced by 2% horse serum. Peptides and NR ligands were added at the indicated concentrations and cells were harvested 96 hours later for assay. Cell extracts were assayed for creatine kinase (CK) per mg protein. CK was measured using the ECPK-100 kit from BioAssay Systems (Hayward, CA). Protein was assayed using the BCA protein assay kit from Thermofisher Scientific (Waltham, MA).

In the case of “IM3K9: peptide AFNSYELGSKGFYKKKQCRPSKGRKRGFCW”, the COL1 ng/ml with HFF-1 cell line is recorded as 0.57 ± 0.13** ng/ml.

Consider “imm3decK9adp: multisynchron SAFNSYELGSDKKGFYKKKQCRPSKGRKRGFCWS, N-lig PPARγ, C-lig RARβ/γ (Decanoyl-SAFNSYELGSDKKGFYKKKQCRPSKGRKRGFCWS-{RARβ/γ ligand}; cysteine pairing not given here; reading uncertain)”, for which the COL1 ng/ml in the experiment with HFF-1 cell line is recorded as 5.27 ± 0.36** ng/ml. `CN1c2ccccc2N=C(c2ccc(C(=O)O)cc2)c2cc3c(cc21)C(C)(C)CCC3(C)C` [HX600]: the “percent survival of cells, A375” value in the experiment on A375 stood at 57.1 ± 0.6 a percent. Moreover, the “percent survival of cells, A549” value in the experiment with A549 came out at 60.0 ± 0.6 a percent. Also, the “percent survival of cells, HuT78” value with HuT78 amounted to 48.7 ± 2.8 a percent. For the compound “imm3fxr-bex: fxr-SDKKGFYKKKQCRPSKGRKRGFCWSVDK-[bex]: GW4064 at N-terminus, bexarotene at C-terminus; multisynchron ({GW4064″}-SDKKGFYKKKQCRPSKGRKRGFCWSVDK-{bexarotene″}; cysteine pairing not given here)”, the “performance in cell culture assays” value with C2C12 myoblast cell line (single peptide compared with combination of imm3fxr and imm3bex) is “performs as predicted from the performance of the combination of imm3fxr and imm3bex episynchrons”. In the case of “imm3fxr: SDKKGFYKKKQCRPSKGRKRGFCWSVDK with C-lig GW4064 (FXR ligand) (SDKKGFYKKKQCRPSKGRKRGFCWSVDK-{GW4064(3)}; cysteine pairing not given here)”, the “CK (units/mg)” value with C2C12 myoblast cell line came out at 136.8 ± 19.6. On to IM3: peptide KKGFYKKKQCRPSKGRKRGFCW, for which, in the experiment on HFF-1 cell line, the COL1 is 0.28 ± 0.23 ng/mL. Consider “imm3ppa: SDKKGFYKKKQCRPSKGRKRGFCWSVDK with C-lig GW7647 (PPARα ligand) on C-terminal lysine (SDKKGFYKKKQCRPSKGRKRGFCWSVDK(GW7647); cysteine pairing not given here)”, for which the “CK (units/mg)” value with C2C12 myoblast cell line was 155.9 ± 18.8. Turning to “imm3bex: SDKKGFYKKKQCRPSKGRKRGFCWSVDK with C-lig bexarotene (RXR ligand) (SDKKGFYKKKQCRPSKGRKRGFCWSVDK-{bexarotene″}; cysteine pairing not given here)”, the “CK (units/mg)” value with C2C12 myoblast cell line is on record as 121.0 ± 6.6. On to `CN1c2ccc([N+](=O)[O-])cc2N=C(c2ccc(C(=O)O)cc2)c2cc3c(cc21)C(C)(C)CCC3(C)C` [HX531], for which, in the experiment on A375, the “percent survival of cells, A375” value was determined as 89.9 ± 1.6 a percent. In addition, the “percent survival of cells, A549” value with A549 was determined as 89.2 ± 4.1 b percent. The “percent survival of cells, HuT78” value with HuT78 is listed as 88.1 ± 0.8%.

For the compound “IM3dec: (decanoic)-KKGFYKKKQCRPSKGRKRGFCW, N-lig PPARγ (Decanoyl-KKGFYKKKQCRPSKGRKRGFCW; cysteine pairing not given here)”, in the experiment on HFF-1 cell line, the COL1 ng/ml is 0.41 ± 0.11* ng/ml.

Source of the values: patent US20260265341A1, “EPISYNCHRONS FOR PRECISION MEDICINE” (priority 2022, published 2026).
